Experimental data published in patent publication US9688695B2, “Imidazothiadiazole and imidazopyrazine derivatives as protease activated receptor 4 (PAR4) inhibitors for treating platelet aggregation” (BRISTOL-MYERS SQUIBB COMPANY, priority 2012, dated 2017).

How the values were obtained:
[1] = molecular target: T1, PAR4 (Homo sapiens (Human), UniProt Q96RI0); assay: Gamma thrombin induced platelet aggregation assay (PRP assay); format: cell-based; conditions: human platelet rich plasma, 96-well microplate
T1 sequence (Q96RI0 18-385): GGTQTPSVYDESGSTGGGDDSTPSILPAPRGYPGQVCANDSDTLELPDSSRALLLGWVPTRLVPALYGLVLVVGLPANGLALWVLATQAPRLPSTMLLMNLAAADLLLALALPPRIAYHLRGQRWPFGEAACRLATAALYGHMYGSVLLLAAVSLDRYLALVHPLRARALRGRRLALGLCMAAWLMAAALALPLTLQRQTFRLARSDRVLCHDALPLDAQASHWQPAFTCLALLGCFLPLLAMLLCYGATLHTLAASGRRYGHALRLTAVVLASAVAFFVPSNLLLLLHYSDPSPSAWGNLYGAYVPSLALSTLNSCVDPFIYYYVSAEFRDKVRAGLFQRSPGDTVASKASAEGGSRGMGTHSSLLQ
Experimental: Platelet aggregation can be monitored in a 96-well microplate aggregation assay format or using standard platelet aggregometer.
The platelet rich plasma was isolated by centrifugation at 170 g for 14 minutes.
The ability of the compounds of the current invention to inhibit platelet aggregation induced by gamma-thrombin was tested in a 96-well microplate aggregation assay format. Briefly, PRP or washed platelet suspension (100 μl) was pre-incubated for 5 minutes at room temperature with varying concentrations of compounds. Aggregation was initiated by ˜10-50 nM gamma thrombin (Haematologic Technologies, Essex Junction, Vt.), which was titrated daily to achieve 80% platelet aggregation. Refludan at 1 U/mL (Berlex, Montville, N.J.) was added to the gamma thrombin sample to prevent PAR1 activation induced by residual alpha-thrombin contamination. The plate was then placed into a 37° C. Molecular Devices (Sunnyvale, Calif.) SPECTRAMAX® Plus Plate Reader. […] The plate also included an untreated control sample which served as ODmax, while buffer containing no platelets was the ODmin. Platelet aggregation was determined by subtracting the ODmax from the ODmin for the 100% aggregation value. In experimental samples, the observed transmission was subtracted from the minimum value and then compared to the 100% aggregation value to determine the percentage aggregation. IC50 values are determined using Excel Fit software.

[2] = molecular target: T1, PAR4; assay: FLIPR assay in PAR4-expressing HEK293 cells (PAR4 antagonist activity, calcium mobilization); format: cell-based; conditions: H-Ala-Phe(4-F)-Pro-Gly-Trp-Leu-Val-Lys-Asn-Gly-NH2-induced calcium mobilization
How it was run: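 HEK293 EBNA cells stably expressing human PAR4 (also endogenous PAR1) preincubated 30 min at room temperature with compound in HBSS/10 mM HEPES, 0.67% DMSO final. PAR4 agonist peptide then added and intracellular calcium mobilization monitored by fluorescence.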

Compound	IC50 [1]	EC50 [2]
COc1cc(OCc2csc(-c3ccccc3)n2)c2nc(-c3cn4nc(SC)sc4n3)oc2c1 [Example 201, 6-Methoxy-2-(2-(methylthio)imidazo[2,1-b][1,3,4]thiadiazol-6-yl)-4-((2-phenylthiazol-4-yl)methoxy)benzo[d]oxazole]	156 nM	–
COc1cc(OCc2nc(-c3ccc(C(=O)N(C)CC#N)cc3)sc2C)c2cc(-c3cn4nc(OC)sc4n3)oc2c1 [Example 48, N-(Cyanomethyl)-4-(4-(((6-methoxy-2-(2-methoxyimidazo[2,1-b][1,3,4]thiadiazol-6-yl)benzofuran-4-yl)oxy)methyl)-5-methylthiazol-2-yl)-N-methylbenzamide]	1.2 nM	0.51 nM
COc1cc(OCc2csc(Nc3cc(C)ccc3F)n2)c2cc(-c3cn4nc(C)ccc4n3)oc2c1 [Example 266]	> 3000 nM	16 nM
COc1cc(OCc2csc(N3CCC3)n2)c2cc(-c3cn4nc(C)ccc4n3)oc2c1 [Example 257]	> 3000 nM	7.5 nM
COc1cc(OCc2csc(NCC3CCCO3)n2)c2cc(-c3cn4nc(C)ccc4n3)oc2c1 (stereo not drawn) [Example 256]	> 3000 nM	7.8 nM
COc1cc(OCc2csc(-c3ccc(C(=O)N(C)CCC#N)cc3)n2)c2cc(-c3cn4nc(OC)sc4n3)oc2c1 [Example 311]	2 nM	0.65 nM
COc1cc(OCc2csc(Nc3cc(F)ccc3F)n2)c2cc(-c3cn4nc(C)ccc4n3)oc2c1 [Example 265]	> 3000 nM	48 nM
COc1cc(OCc2csc(N3CCN(C)C(C)C3)n2)c2cc(-c3cn4nc(C)ccc4n3)oc2c1 (stereo not drawn) [Example 276]	> 3000 nM	24 nM
COc1cc(OCc2csc(N3CCC[C@H]3C)n2)c2cc(-c3cn4nc(C)ccc4n3)oc2c1 [Example 275]	2630 nM	4.2 nM
COc1cc(OCc2csc(N(C)CCO)n2)c2cc(-c3cn4nc(C)ccc4n3)oc2c1 [Example 249]	> 3000 nM	15 nM
COc1cc(OCc2nc(-c3cccc(CO)c3)sc2C)c2cc(-c3cn4nc(OC)sc4n3)oc2c1 [Example 77]	1.9 nM	1 nM
COc1cc(OCc2csc(-c3ccnc(F)c3)n2)c2cc(-c3cn4nc(OC)sc4n3)oc2c1 [Example 67]	2.2 nM	0.34 nM
COc1cc(OCc2csc(-c3ccc(Cl)nc3)n2)c2cc(-c3cn4nc(OC)sc4n3)oc2c1 [Example 80]	0.94 nM	0.74 nM
COc1cc(OCc2csc(N3CCC(N4CCOCC4)CC3)n2)c2cc(-c3cn4nc(C)ccc4n3)oc2c1 [Example 273]	> 3000 nM	53 nM
COc1cc(OCc2csc(C3(O)CC(C)OC(C)C3)n2)c2cc(-c3cn4nc(OC)sc4n3)oc2c1 (stereo not drawn) [Example 121, 4-(4-(((6-Methoxy-2-(2-methoxyimidazo[2,1-b][1,3,4]thiadiazol-6-yl)benzofuran-4-yl)oxy)methyl)thiazol-2-yl)-2,6-dimethyltetrahydro-2H-pyran-4-ol]	27 nM	0.27 nM
COc1cc(OCc2csc(N(C)C)n2)c2cc(-c3cn4nc(C)ccc4n3)oc2c1 [Example 279]	> 3000 nM	7.3 nM

Compound	IC50 [1]	EC50 [2]
COc1cc(OCc2csc(-c3ccc(F)nc3)n2)c2cc(-c3cn4nc(OC)sc4n3)oc2c1 [Example 73]	1.9 nM	0.35 nM
COc1cc(OCc2csc(C(O)(c3ccc(Cl)cc3)C(F)(F)F)n2)c2cc(-c3cn4nc(OC)sc4n3)oc2c1 (stereo not drawn) [Example 145]	29 nM	0.45 nM
COc1cc(OCc2csc(Nc3ccc4[nH]ccc4c3)n2)c2cc(-c3cn4nc(C)ccc4n3)oc2c1 [Example 261]	> 3000 nM	39 nM
COc1cc(OCc2csc(C3(O)CCOCC3)n2)c2cc(-c3cn4nc(OC)sc4n3)oc2c1 [Example 118, 4-(4-(((6-Methoxy-2-(2-methoxyimidazo[2,1-b][1,3,4]thiadiazol-6-yl)benzofuran-4-yl)oxy)methyl)thiazol-2-yl)tetrahydro-2H-pyran-4-ol]	25 nM	0.33 nM
COc1cc(OCc2csc(C(O)(c3ccccc3)C(F)(F)F)n2)c2cc(-c3cn4nc(OC)sc4n3)oc2c1 (stereo not drawn) [Example 137]	23 nM	1.2 nM
COc1cc(OCc2nc(N3CC4CCC(C3)O4)sc2C)c2cc(-c3cn4nc(OC)sc4n3)oc2c1 [Example 93, 3-(4-(((6-Methoxy-2-(2-methoxyimidazo[2,1-b]thiadiazol-6-yl)benzofuran-4-yl)oxy)methyl)-5-methylthiazol-2-yl)-8-oxa-3-azabicyclo-[3.2.1]-octane]	27 nM	0.45 nM
COc1cc(OCc2csc(-c3ccc4c(c3)OCO4)n2)c2cc(-c3cn4nc(C)ccc4n3)oc2c1 [Example 219]	25 nM	1 nM
COc1cc(OCc2nc(C3(F)CCOCC3)sc2C)c2cc(-c3cn4nc(OC)sc4n3)oc2c1 [Example 125, 6-(4-((2-(4-Fluorotetrahydro-2H-pyran-4-yl)-5-methylthiazol-4-yl)methoxy)-6-methoxybenzofuran-2-yl)-2-methoxyimidazo[2,1-b][1,3,4]-thiadiazole]	5.7 nM	–
COc1cc(OCc2csc(N3CCOC(C)C3)n2)c2cc(-c3cn4nc(C)ccc4n3)oc2c1 (stereo not drawn) [Example 277]	–	1.1 nM
COc1cc(OCc2csc(N(C)CCC#N)n2)c2cc(-c3cn4nc(C)ccc4n3)oc2c1 [Example 250]	–	3.6 nM
COc1cc(OCc2csc(C3(c4cccc(Cl)c4)CCOCC3)n2)c2cc(-c3cn4nc(C)ccc4n3)oc2c1 [Example 240]	–	6.9 nM
COc1cc(OCc2csc(-c3ccc(C(=O)N(C)C)cc3)n2)c2cc(-c3cn4nc(C)ccc4n3)oc2c1 [Example 223]	–	0.62 nM
COc1cc(OCc2csc(C3(O)CCN(C(=O)OC(C)(C)C)CC3)n2)c2cc(-c3cn4nc(OC)sc4n3)oc2c1 [Example 129, tert-Butyl 4-hydroxy-4-(4-(((6-methoxy-2-(2-methoxyimidazo[2,1-b][1,3,4]thiadiazol-6-yl)benzofuran-4-yl)oxy)methyl)thiazol-2-yl)piperidine-1-carboxylate]	–	0.96 nM
COc1cc(OCc2csc(C3(NS(=O)(=O)C(C)(C)C)CCOCC3)n2)c2cc(-c3cn4nc(OC)sc4n3)oc2c1 [Example 171, N-(4-(4-(((6-Methoxy-2-(2-methoxyimidazo[2,1-b][1,3,4]thiadiazol-6-yl)benzofuran-4-yl)oxy)methyl)thiazol-2-yl)tetrahydro-2H-pyran-4-yl)-2-methylpropane-2-sulfonamide]	–	0.27 nM
COc1cc(OCc2csc(C3CCN(S(=O)(=O)C(F)(F)F)CC3)n2)c2cc(-c3cn4nc(OC)sc4n3)oc2c1 [Example 114, 2-Methoxy-6-(6-methoxy-4-((2-(1-((trifluoromethyl)sulfonyl)piperidin-4-yl)thiazol-4-yl)methoxy)benzofuran-2-yl)imidazo[2,1-b][1,3,4]thiadiazole]	–	0.49 nM
COc1cc(OCc2csc(C3=CCOc4ccccc43)n2)c2cc(-c3cn4nc(OC)sc4n3)oc2c1 [Example 169, 6-(4-((2-(2H-Chromen-4-yl)thiazol-4-yl)methoxy)-6-methoxybenzofuran-2-yl)-2-methoxyimidazo[2,1-b][1,3,4]thiadiazole]	–	1.3 nM
